{"source": "ChEMBL document CHEMBL1201862", "about": "“PubChem BioAssay data set” (2004)", "assay_type_in_all_cases": "functional", "key": {"[1]": {"target": "Receptor tyrosine-protein kinase erbB-4 (Homo sapiens, UniProt Q15303)"}, "[2]": {"target": "Mitogen-activated protein kinase 9 (Homo sapiens, UniProt P45984)"}, "[3]": {"target": "Mitogen-activated protein kinase 1 (Homo sapiens, UniProt P28482)"}, "[4]": {"target": "Tyrosine-protein kinase JAK2 (Homo sapiens, UniProt O60674)"}, "[5]": {"target": "Serine/threonine-protein kinase PAK 1 (Homo sapiens, UniProt Q13153)"}, "[6]": {"target": "Tyrosine-protein kinase Fyn (Homo sapiens, UniProt P06241)"}, "[7]": {"target": "Cyclin-dependent kinase 2 (Homo sapiens, UniProt P24941)"}, "[8]": {"target": "T1, Tyrosine-protein kinase ITK/TSK (Homo sapiens, UniProt Q08881)", "T1 sequence (Q08881 whole entry)": "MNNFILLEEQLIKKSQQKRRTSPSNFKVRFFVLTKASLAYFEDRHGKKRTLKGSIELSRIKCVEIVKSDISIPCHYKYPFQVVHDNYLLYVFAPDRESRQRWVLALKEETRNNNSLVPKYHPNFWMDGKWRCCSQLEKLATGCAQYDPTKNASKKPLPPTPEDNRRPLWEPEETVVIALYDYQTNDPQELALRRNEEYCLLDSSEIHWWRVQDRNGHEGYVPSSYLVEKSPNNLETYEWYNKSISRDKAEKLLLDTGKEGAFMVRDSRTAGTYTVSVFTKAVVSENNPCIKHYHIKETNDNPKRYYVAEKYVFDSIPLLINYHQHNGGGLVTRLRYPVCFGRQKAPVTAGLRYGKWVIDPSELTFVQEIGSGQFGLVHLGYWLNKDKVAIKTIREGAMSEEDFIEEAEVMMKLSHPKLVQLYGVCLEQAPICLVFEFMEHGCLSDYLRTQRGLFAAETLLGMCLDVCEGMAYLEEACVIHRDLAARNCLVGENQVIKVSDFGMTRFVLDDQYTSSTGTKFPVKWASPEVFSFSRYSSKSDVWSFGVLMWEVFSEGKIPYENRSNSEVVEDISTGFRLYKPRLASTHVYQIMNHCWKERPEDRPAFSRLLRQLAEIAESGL"}, "[9]": {"target": "5'-AMP-activated protein kinase catalytic subunit alpha-1 (Homo sapiens, UniProt Q13131)"}, "[10]": {"target": "Serine/threonine-protein kinase Chk1 (Homo sapiens, UniProt O14757)"}, "[11]": {"target": "Proto-oncogene tyrosine-protein kinase Src (Homo sapiens, UniProt P12931)"}, "[12]": {"target": "Serine/threonine-protein kinase 3 (Homo sapiens, UniProt Q13188)"}, "Aurora kinase A": {"target": "T2, Aurora kinase A (Homo sapiens, UniProt O14965)", "T2 sequence (O14965 whole entry)": "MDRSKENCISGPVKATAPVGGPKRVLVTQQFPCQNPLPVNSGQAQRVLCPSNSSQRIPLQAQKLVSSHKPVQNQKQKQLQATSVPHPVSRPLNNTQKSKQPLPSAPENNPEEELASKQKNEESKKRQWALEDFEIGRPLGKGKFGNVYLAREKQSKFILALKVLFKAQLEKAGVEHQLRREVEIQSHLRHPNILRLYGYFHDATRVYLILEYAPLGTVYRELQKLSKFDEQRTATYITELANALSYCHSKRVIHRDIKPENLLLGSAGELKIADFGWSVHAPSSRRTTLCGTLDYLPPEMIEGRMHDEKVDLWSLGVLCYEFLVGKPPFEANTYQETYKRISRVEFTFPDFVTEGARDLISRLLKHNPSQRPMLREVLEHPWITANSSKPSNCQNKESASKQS"}, "[13]": {"target": "Serine/threonine-protein kinase pim-2 (Homo sapiens, UniProt Q9P1W9)"}, "[14]": {"target": "Mitogen-activated protein kinase 12 (Homo sapiens, UniProt P53778)"}, "[15]": {"target": "Tyrosine-protein kinase ABL1 (Homo sapiens, UniProt P00519)"}, "[16]": {"target": "Rho-associated protein kinase 1 (Homo sapiens, UniProt Q13464)"}, "[17]": {"target": "Hepatocyte growth factor receptor (Homo sapiens, UniProt P08581)"}, "[18]": {"target": "Tyrosine-protein kinase Lyn (Homo sapiens, UniProt P07948)", "sequence (P07948 whole entry)": "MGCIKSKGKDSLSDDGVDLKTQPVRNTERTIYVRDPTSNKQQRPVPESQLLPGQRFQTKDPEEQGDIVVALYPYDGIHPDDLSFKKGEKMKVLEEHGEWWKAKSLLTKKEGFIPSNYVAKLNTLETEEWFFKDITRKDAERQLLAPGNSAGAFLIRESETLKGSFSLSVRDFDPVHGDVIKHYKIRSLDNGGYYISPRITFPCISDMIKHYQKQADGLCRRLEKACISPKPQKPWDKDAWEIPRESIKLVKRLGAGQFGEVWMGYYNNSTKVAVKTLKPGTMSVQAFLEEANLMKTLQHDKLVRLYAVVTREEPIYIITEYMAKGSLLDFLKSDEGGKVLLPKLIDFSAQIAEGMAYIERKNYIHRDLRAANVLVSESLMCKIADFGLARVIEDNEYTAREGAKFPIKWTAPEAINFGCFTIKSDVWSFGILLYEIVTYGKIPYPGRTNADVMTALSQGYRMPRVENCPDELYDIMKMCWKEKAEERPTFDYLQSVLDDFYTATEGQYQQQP"}, "Insulin receptor": {"target": "Insulin receptor (Homo sapiens, UniProt P06213)", "sequence (P06213 28-758 limits assumed)": "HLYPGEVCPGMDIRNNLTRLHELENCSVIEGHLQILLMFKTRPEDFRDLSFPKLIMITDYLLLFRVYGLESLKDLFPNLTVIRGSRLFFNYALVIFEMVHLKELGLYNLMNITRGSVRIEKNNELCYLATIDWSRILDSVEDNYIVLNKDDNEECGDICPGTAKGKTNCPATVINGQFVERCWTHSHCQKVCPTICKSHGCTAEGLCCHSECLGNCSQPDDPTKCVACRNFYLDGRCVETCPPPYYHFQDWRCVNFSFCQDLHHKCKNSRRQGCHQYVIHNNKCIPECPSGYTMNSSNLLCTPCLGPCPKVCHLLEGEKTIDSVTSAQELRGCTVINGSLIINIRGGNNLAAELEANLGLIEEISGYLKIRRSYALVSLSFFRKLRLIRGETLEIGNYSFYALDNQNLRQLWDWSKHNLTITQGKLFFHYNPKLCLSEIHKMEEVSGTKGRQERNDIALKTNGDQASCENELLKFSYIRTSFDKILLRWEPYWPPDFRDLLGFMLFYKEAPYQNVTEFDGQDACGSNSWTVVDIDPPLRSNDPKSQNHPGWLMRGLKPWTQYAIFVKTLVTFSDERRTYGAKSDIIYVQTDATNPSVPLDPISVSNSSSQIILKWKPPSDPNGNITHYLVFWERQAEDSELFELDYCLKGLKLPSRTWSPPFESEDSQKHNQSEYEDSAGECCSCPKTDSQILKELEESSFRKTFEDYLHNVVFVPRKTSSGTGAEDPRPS", "sequence (P06213 763-1382 limits assumed)": "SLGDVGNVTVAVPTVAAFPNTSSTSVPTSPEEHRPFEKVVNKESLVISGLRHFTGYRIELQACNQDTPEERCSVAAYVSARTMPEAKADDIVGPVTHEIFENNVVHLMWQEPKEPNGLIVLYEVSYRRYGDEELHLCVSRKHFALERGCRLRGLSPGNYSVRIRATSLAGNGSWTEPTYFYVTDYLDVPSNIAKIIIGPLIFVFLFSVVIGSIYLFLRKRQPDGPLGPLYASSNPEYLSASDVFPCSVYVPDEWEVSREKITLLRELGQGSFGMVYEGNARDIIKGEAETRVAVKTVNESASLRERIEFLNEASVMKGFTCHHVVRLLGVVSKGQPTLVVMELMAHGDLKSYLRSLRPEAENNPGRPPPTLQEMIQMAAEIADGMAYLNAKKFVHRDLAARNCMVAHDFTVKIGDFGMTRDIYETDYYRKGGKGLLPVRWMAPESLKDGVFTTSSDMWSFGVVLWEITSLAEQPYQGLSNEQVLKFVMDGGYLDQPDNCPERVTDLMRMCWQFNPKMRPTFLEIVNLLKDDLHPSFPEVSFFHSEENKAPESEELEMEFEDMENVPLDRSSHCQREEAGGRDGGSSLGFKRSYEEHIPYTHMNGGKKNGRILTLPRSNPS"}, "[19]": {"target": "Casein kinase I isoform delta (Homo sapiens, UniProt P48730)", "sequence (P48730 whole entry, canonical isoform)": "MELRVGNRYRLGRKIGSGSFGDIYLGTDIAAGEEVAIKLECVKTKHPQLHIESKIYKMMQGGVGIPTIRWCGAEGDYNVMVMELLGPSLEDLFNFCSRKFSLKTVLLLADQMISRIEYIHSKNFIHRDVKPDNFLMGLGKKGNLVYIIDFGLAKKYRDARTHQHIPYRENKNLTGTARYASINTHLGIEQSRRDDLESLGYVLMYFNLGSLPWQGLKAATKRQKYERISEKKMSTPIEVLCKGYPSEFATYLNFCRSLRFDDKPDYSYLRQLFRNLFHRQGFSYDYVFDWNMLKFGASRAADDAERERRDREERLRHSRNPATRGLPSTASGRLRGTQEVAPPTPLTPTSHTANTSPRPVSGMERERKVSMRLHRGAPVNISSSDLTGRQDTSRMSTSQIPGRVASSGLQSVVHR"}, "[20]": {"target": "Mast/stem cell growth factor receptor Kit (Homo sapiens, UniProt P10721)", "sequence (P10721 whole entry)": "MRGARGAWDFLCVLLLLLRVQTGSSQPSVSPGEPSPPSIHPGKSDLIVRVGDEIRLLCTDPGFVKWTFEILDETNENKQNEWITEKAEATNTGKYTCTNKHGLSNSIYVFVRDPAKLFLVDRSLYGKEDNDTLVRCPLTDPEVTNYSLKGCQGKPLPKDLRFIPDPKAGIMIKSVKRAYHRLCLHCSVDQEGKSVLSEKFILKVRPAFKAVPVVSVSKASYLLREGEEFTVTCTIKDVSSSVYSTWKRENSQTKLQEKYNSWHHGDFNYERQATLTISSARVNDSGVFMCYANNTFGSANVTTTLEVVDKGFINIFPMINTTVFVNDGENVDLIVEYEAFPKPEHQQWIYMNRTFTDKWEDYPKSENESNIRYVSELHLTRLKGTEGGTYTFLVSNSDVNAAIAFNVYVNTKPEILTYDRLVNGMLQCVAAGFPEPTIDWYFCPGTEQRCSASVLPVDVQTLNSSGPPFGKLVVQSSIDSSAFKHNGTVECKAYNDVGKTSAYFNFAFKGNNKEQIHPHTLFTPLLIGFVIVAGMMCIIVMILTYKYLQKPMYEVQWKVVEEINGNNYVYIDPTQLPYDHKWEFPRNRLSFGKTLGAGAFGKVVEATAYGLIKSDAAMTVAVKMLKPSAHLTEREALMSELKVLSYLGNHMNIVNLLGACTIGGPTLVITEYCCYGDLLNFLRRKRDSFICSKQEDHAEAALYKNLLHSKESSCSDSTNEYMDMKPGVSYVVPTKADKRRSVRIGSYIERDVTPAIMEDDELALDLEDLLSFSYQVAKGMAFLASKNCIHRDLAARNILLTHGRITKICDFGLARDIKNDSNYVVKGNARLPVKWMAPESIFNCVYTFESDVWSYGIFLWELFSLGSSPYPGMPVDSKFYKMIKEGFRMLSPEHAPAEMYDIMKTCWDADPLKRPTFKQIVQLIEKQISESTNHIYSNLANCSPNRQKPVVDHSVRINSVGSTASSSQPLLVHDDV"}, "[21]": {"target": "MAP kinase-activated protein kinase 2 (Homo sapiens, UniProt P49137)", "sequence (P49137 whole entry)": "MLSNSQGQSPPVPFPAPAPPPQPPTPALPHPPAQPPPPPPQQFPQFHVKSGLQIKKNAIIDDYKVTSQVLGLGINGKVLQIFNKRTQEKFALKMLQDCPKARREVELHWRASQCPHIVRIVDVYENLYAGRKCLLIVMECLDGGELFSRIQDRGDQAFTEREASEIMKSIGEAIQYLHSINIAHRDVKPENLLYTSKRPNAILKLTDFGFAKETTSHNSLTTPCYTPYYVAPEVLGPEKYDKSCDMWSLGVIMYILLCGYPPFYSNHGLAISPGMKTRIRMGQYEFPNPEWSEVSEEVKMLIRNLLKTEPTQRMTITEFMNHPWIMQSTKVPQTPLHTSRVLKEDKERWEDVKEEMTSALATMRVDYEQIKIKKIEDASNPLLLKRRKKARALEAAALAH"}, "[22]": {"target": "Calcium/calmodulin-dependent protein kinase type 1 (Homo sapiens, UniProt Q14012)"}, "[23]": {"target": "MAP/microtubule affinity-regulating kinase 3 (Homo sapiens, UniProt P27448)"}, "[24]": {"target": "Mitogen-activated protein kinase 8 (Homo sapiens, UniProt P45983)", "sequence (P45983 whole entry)": "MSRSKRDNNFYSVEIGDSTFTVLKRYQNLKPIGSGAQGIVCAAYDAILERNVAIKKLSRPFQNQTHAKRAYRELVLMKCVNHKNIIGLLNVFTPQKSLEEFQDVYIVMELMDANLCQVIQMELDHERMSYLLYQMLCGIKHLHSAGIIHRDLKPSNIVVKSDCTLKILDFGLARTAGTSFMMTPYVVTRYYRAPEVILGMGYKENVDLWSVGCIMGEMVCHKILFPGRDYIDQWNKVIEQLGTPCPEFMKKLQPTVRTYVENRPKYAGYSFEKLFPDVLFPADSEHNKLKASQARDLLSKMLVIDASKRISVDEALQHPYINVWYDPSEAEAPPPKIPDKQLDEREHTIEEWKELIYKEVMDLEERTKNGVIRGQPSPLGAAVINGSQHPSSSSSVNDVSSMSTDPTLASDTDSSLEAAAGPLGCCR"}, "Aurora kinase B": {"target": "Aurora kinase B (Homo sapiens, UniProt Q96GD4)", "sequence (Q96GD4 whole entry)": "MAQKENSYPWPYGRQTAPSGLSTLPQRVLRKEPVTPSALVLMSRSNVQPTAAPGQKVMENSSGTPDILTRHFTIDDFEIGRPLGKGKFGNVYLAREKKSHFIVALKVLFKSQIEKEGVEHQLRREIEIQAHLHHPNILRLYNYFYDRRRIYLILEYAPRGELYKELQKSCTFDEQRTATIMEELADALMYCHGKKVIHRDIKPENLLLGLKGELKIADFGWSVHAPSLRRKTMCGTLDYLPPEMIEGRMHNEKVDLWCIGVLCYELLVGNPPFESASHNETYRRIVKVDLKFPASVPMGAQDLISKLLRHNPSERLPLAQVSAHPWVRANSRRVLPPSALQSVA"}, "[25]": {"target": "BDNF/NT-3 growth factors receptor (Homo sapiens, UniProt Q16620)"}, "[26]": {"target": "Insulin-like growth factor 1 receptor (Homo sapiens, UniProt P08069)", "assay": "Navigating the Kinome. Panel member name: IGF1R"}, "[27]": {"target": "3-phosphoinositide-dependent protein kinase 1 (Homo sapiens, UniProt O15530)", "sequence (O15530 whole entry)": "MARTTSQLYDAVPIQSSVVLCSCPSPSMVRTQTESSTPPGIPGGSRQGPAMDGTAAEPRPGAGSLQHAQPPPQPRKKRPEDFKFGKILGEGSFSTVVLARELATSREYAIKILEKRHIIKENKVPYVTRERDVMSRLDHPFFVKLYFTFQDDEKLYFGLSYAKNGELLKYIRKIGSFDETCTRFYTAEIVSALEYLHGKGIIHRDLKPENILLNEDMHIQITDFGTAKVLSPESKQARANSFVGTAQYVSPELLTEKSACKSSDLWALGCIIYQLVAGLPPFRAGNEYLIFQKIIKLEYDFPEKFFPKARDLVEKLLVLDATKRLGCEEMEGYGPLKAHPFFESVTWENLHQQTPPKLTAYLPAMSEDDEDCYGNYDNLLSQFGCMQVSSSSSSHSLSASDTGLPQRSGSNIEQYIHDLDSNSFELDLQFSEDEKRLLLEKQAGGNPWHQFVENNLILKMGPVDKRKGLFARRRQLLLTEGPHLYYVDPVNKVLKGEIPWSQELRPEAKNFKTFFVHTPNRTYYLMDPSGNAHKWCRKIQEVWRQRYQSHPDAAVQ"}, "[28]": {"target": "High affinity nerve growth factor receptor (Homo sapiens, UniProt P04629)"}, "[29]": {"target": "Ribosomal protein S6 kinase beta-1 (Homo sapiens, UniProt P23443)"}, "[30]": {"target": "Serine/threonine-protein kinase PLK4 (Homo sapiens, UniProt O00444)"}}, "note": "Active and inactive are the calls of the source.", "data": [{"smiles": "Cc1n[nH]c2cnc(-c3cncc(OCC(N)Cc4cccc(C(F)(F)F)c4)c3)cc12", "note": "(stereo unspecified)", "values": [{"measurement": "Ki", "setting": "[1]", "result": "> 3980 nM (inactive)"}, {"measurement": "Ki", "setting": "[2]", "result": "> 3980 nM (inactive)"}, {"measurement": "Ki", "setting": "[3]", "result": "631 nM (active)"}, {"measurement": "Ki", "setting": "[4]", "result": "> 1580 nM (inactive)"}, {"measurement": "Ki", "setting": "[5]", "result": "2000 nM (active)"}, {"measurement": "Ki", "setting": "[6]", "result": "> 794 nM (inactive)"}, {"measurement": "Ki", "setting": "[7]", "result": "10 nM (active)"}, {"measurement": "Ki", "setting": "[8]", "result": "> 1580 nM (inactive)"}, {"measurement": "Ki", "setting": "[9]", "result": "12.6 nM (active)"}, {"measurement": "Ki", "setting": "[10]", "result": "3980 nM (active)"}, {"measurement": "Ki", "setting": "[11]", "result": "> 2000 nM (inactive)"}, {"measurement": "Ki", "setting": "[12]", "result": "79.4 nM (active)"}, {"measurement": "Ki", "setting": "Aurora kinase A", "result": "> 1580 nM (inactive)"}, {"measurement": "Ki", "setting": "[13]", "result": "1.26 nM (active)"}, {"measurement": "Ki", "setting": "[14]", "result": "1000 nM (active)"}, {"measurement": "Ki", "setting": "[15]", "result": "> 631 nM (inactive)"}, {"measurement": "Ki", "setting": "[16]", "result": "7.94 nM (active)"}, {"measurement": "Ki", "setting": "[17]", "result": "> 3160 nM (inactive)"}, {"measurement": "Ki", "setting": "[18]", "result": "> 1580 nM (inactive)"}, {"measurement": "Ki", "setting": "Insulin receptor", "result": "> 5010 nM (inactive)"}, {"measurement": "Ki", "setting": "[19]", "result": "316 nM (active)"}, {"measurement": "Ki", "setting": "[20]", "result": "> 1260 nM (inactive)"}, {"measurement": "Ki", "setting": "[21]", "result": "1580 nM (active)"}, {"measurement": "Ki", "setting": "[22]", "result": "501 nM (active)"}, {"measurement": "Ki", "setting": "[23]", "result": "63.1 nM (active)"}, {"measurement": "Ki", "setting": "[24]", "result": "> 3160 nM (inactive)"}, {"measurement": "Ki", "setting": "Aurora kinase B", "result": "3160 nM (active)"}, {"measurement": "Ki", "setting": "[25]", "result": "> 5010 nM (inactive)"}, {"measurement": "Ki", "setting": "[26]", "result": "> 2000 nM (inactive)"}, {"measurement": "Ki", "setting": "[27]", "result": "200 nM (active)"}, {"measurement": "Ki", "setting": "[28]", "result": "> 2510 nM (inactive)"}, {"measurement": "Ki", "setting": "[29]", "result": "12.6 nM (active)"}, {"measurement": "Ki", "setting": "[30]", "result": "2510 nM (active)"}]}, {"smiles": "Cc1c(C=O)c(O)n2c(nc3ccccc32)c1C#N", "values": [{"measurement": "Ki", "setting": "[1]", "result": "> 3980 nM (inactive)"}, {"measurement": "Ki", "setting": "[2]", "result": "> 3980 nM (inactive)"}, {"measurement": "Ki", "setting": "[3]", "result": "> 7940 nM (inactive)"}, {"measurement": "Ki", "setting": "[4]", "result": "> 1580 nM (inactive)"}, {"measurement": "Ki", "setting": "[5]", "result": "> 10000 nM (inactive)"}, {"measurement": "Ki", "setting": "[6]", "result": "398 nM (active)"}, {"measurement": "Ki", "setting": "[7]", "result": "> 7940 nM (inactive)"}, {"measurement": "Ki", "setting": "[8]", "result": "398 nM (active)"}, {"measurement": "Ki", "setting": "[9]", "result": "> 10000 nM (inactive)"}, {"measurement": "Ki", "setting": "[10]", "result": "> 7940 nM (inactive)"}, {"measurement": "Ki", "setting": "[11]", "result": "1580 nM (active)"}, {"measurement": "Ki", "setting": "[12]", "result": "5010 nM (active)"}, {"measurement": "Ki", "setting": "Aurora kinase A", "result": "794 nM (active)"}, {"measurement": "Ki", "setting": "[13]", "result": "> 1580 nM (inactive)"}, {"measurement": "Ki", "setting": "[14]", "result": "> 6310 nM (inactive)"}, {"measurement": "Ki", "setting": "[15]", "result": "> 631 nM (inactive)"}, {"measurement": "Ki", "setting": "[16]", "result": "> 10000 nM (inactive)"}, {"measurement": "Ki", "setting": "[17]", "result": "> 3160 nM (inactive)"}, {"measurement": "Ki", "setting": "[18]", "result": "1580 nM (active)"}, {"measurement": "Ki", "setting": "Insulin receptor", "result": "> 5010 nM (inactive)"}, {"measurement": "Ki", "setting": "[19]", "result": "2000 nM (active)"}, {"measurement": "Ki", "setting": "[20]", "result": "> 1260 nM (inactive)"}, {"measurement": "Ki", "setting": "[21]", "result": "> 7940 nM (inactive)"}, {"measurement": "Ki", "setting": "[22]", "result": "> 7940 nM (inactive)"}, {"measurement": "Ki", "setting": "[23]", "result": "> 6310 nM (inactive)"}, {"measurement": "Ki", "setting": "[24]", "result": "> 3160 nM (inactive)"}, {"measurement": "Ki", "setting": "Aurora kinase B", "result": "6310 nM (active)"}, {"measurement": "Ki", "setting": "[25]", "result": "> 5010 nM (inactive)"}, {"measurement": "Ki", "setting": "[26]", "result": "> 1000 nM (inactive)"}, {"measurement": "Ki", "setting": "[27]", "result": "> 3980 nM (inactive)"}, {"measurement": "Ki", "setting": "[28]", "result": "> 2510 nM (inactive)"}, {"measurement": "Ki", "setting": "[29]", "result": "1260 nM (active)"}, {"measurement": "Ki", "setting": "[30]", "result": "794 nM (active)"}]}]}
